# Measurements published in patent publication US20260053811A1, “METHODS OF TREATING HYPERTENSION IN OBESE SUBJECTS” (Mineralys Therapeutics, Inc., priority 2022, published 2026).
# Test system: hypertensive subjects
# Test: Seated automated office blood pressure (AOBP) in randomized, placebo-controlled, dose-ranging study
# Assay type: in vivo, human
# Settings: 100 mg QD; for Mean Automated Office-Measured Systolic Blood Pressure at Wk 8 / Mean Change from Baseline at Week 8 in Automated Office-Measured Systolic Blood Pressure / Automated Office-Measured Diastolic Blood Pressure, Week 8, mean / Change from Baseline at Week 8 in Automated Office-Measured Diastolic Blood Pressure, mean: Part 2
# Procedure: A randomized, double-blinded, placebo-controlled, dose-ranging, multicenter study was conducted to evaluate the effect of orally administered Compound A HBr on blood pressure for the treatment of hypertension in male and female subjects ≥18 years of age.
# The study consists of two parts. For enrollment into Part 1 of the study, a subject's value of plasma renin activity (PRA) must be ≤1 ng/mL/h based on morning measurement. If the value of PRA >1 ng/mL/h based on morning measurement, then subjects may be eligible to enter Part 2 of the study.
# For Part 1, 163 enrolled subjects ≥18 years of age were randomized into 6 equal treatment groups (1:1:1:1:1:1) to 12.5 mg BID, 25 mg BID, 12.5 mg QD, 50 mg QD, 100 mg QD, or placebo. After a review of interim clinical data, the 2 lowest dose levels (12.5 mg QD and 12.5 mg BID) were stopped for future randomization due to a lack of consistent meaningful reduction of blood pressure, but the patients randomized to that point remained in the study through completion. Thus, after the review of interim clinical data, subjects were randomized into 4 equal treatment groups (1:1:1:1) to 25 mg BID, 50 mg QD, 100 mg QD, or placebo.
# For Part 2, 36 enrolled subjects ≥18 years of age were randomized (5:1) to either 100 mg QD Compound A HBr or placebo such that the Compound A HBr treatment group consisted of approximately 30 subjects and the placebo treatment group will consist of approximately 6 subjects.
# Subjects orally administered the assigned study drug (Compound A HBr or placebo) according to the assigned dosing regimen for 8 weeks beginning on Study Day 1. All subjects in Part 1 (regardless of dosing group) received BID dosing to preserve the integrity of the blind; active drug is administered as the morning dose for all QD dose groups. Subjects returned to the research facility or were seen by the clinical investigator or approved home health care professional at the end of Study Weeks 1, 2, 3, 4, 5, 6, 7, and 8 (±2 days) for protocol-defined efficacy and safety assessments and procedures, assessment of adverse events (AEs), and confirmation of compliance with study drug usage. Subjects also completed a telephone visit and blood pressure (BP) check at home approximately 3 days post last dose of study drug. Subjects attended up to 14 full clinic visits, including a pre-Screening visit, a Screening/start of Placebo Run-in visit, a second visit during Placebo Run-in, a clinic visit to initiate the ABPM procedure, a Randomization visit, 8 weekly visits during double-blind treatment, and an end-of-study visit scheduled 4 weeks after the last study treatment for final efficacy and safety assessments.
# An automated oscillometric sphygmomanometer device was used to measure the subjects' systolic and diastolic blood pressure in office after approximately 5 minutes of rest in the seated position.
# The primary endpoint is the change in office-measured (mean of last 2 of 5 unattended measurements using an automated oscillometric sphygmomanometer device after approximately 5 minutes of rest in the seated position) systolic blood pressure (SBP) from baseline to the end of Study Week 8.
# Secondary endpoints of this study were: • (a) Change in 24-hour ambulatory blood pressure monitoring (ABPM) parameters (systolic and diastolic) from baseline to the end of Study Week 7. • (b) Change in office-measured SBP from baseline to the end of Study Weeks 1, 2, 3, 4, 5, 6, and 7. • (c) Change in office-measured diastolic blood pressure (DBP) from baseline to the end of Study Weeks 1, 2, 3, 4, 5, 6, 7, and 8. • (d) Proportion of subjects who achieve office-measured BP of ≤130/80 mm Hg by the end of Study Week 8.
# [1] = Part 1, Thiazide Diuretic Use at Baseline No
# [2] = Part 1, Thiazide Diuretic Use at Baseline Yes
# [3] = Systolic Blood Pressure Tertile at Baseline High
# [4] = Systolic Blood Pressure Tertile at Baseline Low
# [5] = Systolic Blood Pressure Tertile at Baseline Middle
# [6] = Thiazide Diuretic Use at Baseline No
# [7] = Thiazide Diuretic Use at Baseline Yes
structure (smiles),measurement,setting,value
CC(=O)N[C@H]1CC[C@H](NC(=O)CN2CCN(c3nncc(-c4ccc(C)cc4)n3)CC2)CC1 [Compound A HBr],Mean (SD) Change from Baseline at Week 8 in Automated Office-Measured Diastolic Blood Pressure,[1],−4.00 (6.33) mmHg
same,Mean (SD) Change from Baseline at Week 8 in Automated Office-Measured Systolic Blood Pressure,[1],−9.15 (9.27) mmHg
same,"Automated Office-Measured Diastolic Blood Pressure, Week 8, Mean (SD)",[2],73.40 (8.98) mmHg
same,Mean (SD) Automated Office-Measured Systolic Blood Pressure at Wk 8,[2],128.27 (16.26) mmHg
same,Mean (SD) Change from Baseline at Week 8 in Automated Office-Measured Diastolic Blood Pressure,[2],−6.43 (8.79) mmHg
same,Mean (SD) Change from Baseline at Week 8 in Automated Office-Measured Systolic Blood Pressure,[2],−17.37 (14.74) mmHg
same,Mean Automated Office-Measured Systolic Blood Pressure at Wk 8,ACEi/ARB No,131.00 mmHg
same,Mean Change from Baseline at Week 8 in Automated Office-Measured Systolic Blood Pressure,ACEi/ARB No,−4.00 mmHg
same,Mean Automated Office-Measured Systolic Blood Pressure at Wk 8,ACEi/ARB Yes,129.24 mmHg
same,Mean Change from Baseline at Week 8 in Automated Office-Measured Systolic Blood Pressure,ACEi/ARB Yes,−11.45 mmHg
same,Mean Automated Office-Measured Systolic Blood Pressure at Wk 8,AHTs 2,127.84 mmHg
same,Mean Change from Baseline at Week 8 in Automated Office-Measured Systolic Blood Pressure,AHTs 2,−10.37 mmHg
same,Mean Automated Office-Measured Systolic Blood Pressure at Wk 8,AHTs ≥3,131.82 mmHg
same,Mean Change from Baseline at Week 8 in Automated Office-Measured Systolic Blood Pressure,AHTs ≥3,−12.64 mmHg
same,Mean Automated Office-Measured Systolic Blood Pressure at Wk 8,Age 65-79 yr,132.81 mmHg
same,Mean Change from Baseline at Week 8 in Automated Office-Measured Systolic Blood Pressure,Age 65-79 yr,−9.69 mmHg
same,Mean Automated Office-Measured Systolic Blood Pressure at Wk 8,Age <65 yr,120.88 mmHg
same,Mean Change from Baseline at Week 8 in Automated Office-Measured Systolic Blood Pressure,Age <65 yr,−13.06 mmHg
same,Mean Automated Office-Measured Systolic Blood Pressure at Wk 8,Age ≥80 yr,123.00 mmHg
same,Mean Change from Baseline at Week 8 in Automated Office-Measured Systolic Blood Pressure,Age ≥80 yr,−28.00 mmHg
same,Mean Automated Office-Measured Systolic Blood Pressure at Wk 8,BMI at baseline 25-30 kg/m^2,126.80 mmHg
same,Mean Change from Baseline at Week 8 in Automated Office-Measured Systolic Blood Pressure,BMI at baseline 25-30 kg/m^2,−14.60 mmHg
same,Mean Automated Office-Measured Systolic Blood Pressure at Wk 8,BMI at baseline <25 kg/m^2,130.00 mmHg
same,Mean Change from Baseline at Week 8 in Automated Office-Measured Systolic Blood Pressure,BMI at baseline <25 kg/m^2,−6.50 mmHg
same,Mean Automated Office-Measured Systolic Blood Pressure at Wk 8,BMI at baseline >30 kg/m^2,132.08 mmHg
same,Mean Change from Baseline at Week 8 in Automated Office-Measured Systolic Blood Pressure,BMI at baseline >30 kg/m^2,−8.00 mmHg
same,Mean Automated Office-Measured Systolic Blood Pressure at Wk 8,Race Black or AA,125.83 mmHg
same,Mean Change from Baseline at Week 8 in Automated Office-Measured Systolic Blood Pressure,Race Black or AA,−15.83 mmHg
same,Mean Automated Office-Measured Systolic Blood Pressure at Wk 8,Race Other,130.17 mmHg
same,Mean Change from Baseline at Week 8 in Automated Office-Measured Systolic Blood Pressure,Race Other,−10.04 mmHg
same,Mean Automated Office-Measured Systolic Blood Pressure at Wk 8,Sex Female,127.90 mmHg
same,Mean Change from Baseline at Week 8 in Automated Office-Measured Systolic Blood Pressure,Sex Female,−11.15 mmHg
same,Mean Automated Office-Measured Systolic Blood Pressure at Wk 8,Sex Male,132.10 mmHg
same,Mean Change from Baseline at Week 8 in Automated Office-Measured Systolic Blood Pressure,Sex Male,−11.30 mmHg
same,Mean Automated Office-Measured Systolic Blood Pressure at Wk 8,[3],132.36 mmHg
same,Mean Change from Baseline at Week 8 in Automated Office-Measured Systolic Blood Pressure,[3],−17.05 mmHg
same,Mean Automated Office-Measured Systolic Blood Pressure at Wk 8,[4],124.11 mmHg
same,Mean Change from Baseline at Week 8 in Automated Office-Measured Systolic Blood Pressure,[4],−7.56 mmHg
same,Mean Automated Office-Measured Systolic Blood Pressure at Wk 8,[5],130.60 mmHg
same,Mean Change from Baseline at Week 8 in Automated Office-Measured Systolic Blood Pressure,[5],−8.05 mmHg
same,"Automated Office-Measured Diastolic Blood Pressure, Week 8, mean",[6],68.42 mmHg
same,"Change from Baseline at Week 8 in Automated Office-Measured Diastolic Blood Pressure, mean",[6],−8.13 mmHg
same,Mean Automated Office-Measured Systolic Blood Pressure at Wk 8,[6],125.67 mmHg
same,Mean Change from Baseline at Week 8 in Automated Office-Measured Systolic Blood Pressure,[6],−12.25 mmHg
same,"Automated Office-Measured Diastolic Blood Pressure, Week 8, mean",[7],74.67 mmHg
same,"Change from Baseline at Week 8 in Automated Office-Measured Diastolic Blood Pressure, mean",[7],−4.06 mmHg
